The subject of data set [1] is memory loss associated with sleep deprivation. As to the kind of experiment: Treatment of memory loss associated with sleep deprivation in a subject. Format: in vivo. Conditions: nasal spray, effective dose 3× daily in each naris. The source says: A subject is admitted to a clinic for a memory loss associated with sleep deprivation. The subject is prescribed a roflumilast composition in a nasal spray device described herein. The subject administers the nasal spray in an effective dose 3× daily in each naris. The nasal spray is characterized by a spray containing a D50 of about 15 μm to about 24 μm, a D90 of from about 30 μm to about […] and where less than about 3% of the droplets in the plume of a spray have a size of less than about 10 μm.

For data set [2] the following is noted: cited from earlier work.

We go through 2 compounds from patent publication US20260041690A1, “Treatment of Memory Loss with Phosphodiesterase Inhibitors” (Cyrano Therapeutics, Inc., priority 2023, published 2026).

`O=C(Nc1c(Cl)cncc1Cl)c1ccc(OC(F)F)c(OCC2CC2)c1` [roflumilast]: the “memory retention after administration” value in data set [1] is “improved memory retention”.
For the compound `Cn1c(=O)c2[nH]cnc2n(C)c1=O` [theophylline], the “solubility of theophylline in ethanol” value in data set [2] (in ethanol) is 14 to 15 mg/mL. The “solubility of theophylline in water” value in data set [2] (in water) was 7 to 8 mg/mL.
